Experimental data as given in PubChem BioAssay (NCI).
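Values below derive from 48-hour exposures of cells grown in 96-well plates, with endpoints linearly interpolated between the two concentrations bracketing the appropriate inhibition level. At the TGI there is no net growth.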

Tests used:
Assay in all cases: NCI-60 cell line screen, 48 h
[1] = system: DU-145 prostate
[2] = system: SN12C renal
[3] = system: SK-MEL-5 melanoma
[4] = system: UACC-62 melanoma
[5] = system: RPMI-8226 leukemia
[6] = system: KM12 colon
[7] = system: SF-295 CNS
[8] = system: RXF 393 renal
[9] = system: MCF7 breast
[10] = system: M14 melanoma
[11] = system: HOP-92 NSCLC
[12] = system: T-47D breast
[13] = system: A549 NSCLC
[14] = system: LOX IMVI melanoma
[15] = system: PC-3 prostate
[16] = system: SK-MEL-28 melanoma
[17] = system: EKVX NSCLC
[18] = system: HCT-116 colon
[19] = system: OVCAR-4 ovarian
[20] = system: MDA-MB-231 breast
[21] = system: HS 578T breast
[22] = system: MDA-MB-435
[23] = system: OVCAR-8 ovarian
[24] = system: NCI-H460 lung
[25] = system: ACHN renal
[26] = system: SNB-75 CNS
[27] = system: NCI-H226 lung
[28] = system: SK-MEL-2 melanoma
[29] = system: NCI-H522 lung
[30] = system: BT-549 breast
[31] = system: HL-60(TB) leukemia
[32] = system: SF-268 CNS
[33] = system: HOP-62 NSCLC
[34] = system: NCI/ADR-RES ovarian
[35] = system: U251 CNS
[36] = system: K-562 leukemia
[37] = system: SF-539 CNS
[38] = system: CCRF-CEM leukemia
[39] = system: 786-0 renal
[40] = system: IGROV1 ovarian
[41] = system: SNB-19 CNS
[42] = system: HCC-2998 colon
[43] = system: TK-10 renal
[44] = system: SK-OV-3 ovarian
[45] = system: COLO 205 colon
[46] = system: NCI-H23 lung
[47] = system: UO-31 renal
[48] = system: MDA-N
[49] = system: MOLT-4 leukemia
[50] = system: MALME-3M melanoma
[51] = system: OVCAR-5 ovarian
[52] = system: A498 renal
[53] = system: HCT-15 colon
[54] = system: HT29 colon
[55] = system: OVCAR-3 ovarian
[56] = system: SR leukemia
[57] = system: CAKI-1 renal
[58] = system: SW-620 colon
[59] = system: UACC-257 melanoma

Measured: TGI

Cc1cc(=O)[nH]c(S(=O)(=O)NC(=O)Nc2cccc(Cl)c2)n1
> 31.2 µM: [31]
> 41.7 µM: [19]
> 48.3 µM: [22]
> 22.3 µM: [57]
32.3 µM: [6]
13.9 µM: [47]
> 100 µM: all other assays above

Fc1c(F)c(F)c(CSc2nc3ccccc3[nH]2)c(F)c1F
not listed: [39]
> 100 µM: all other assays above

CCOC(=O)/C=C(\C(=O)OCC)n1cc(C)c(=O)n(Cc2cn(COCCOC(C)=O)nn2)c1=O
48.7 µM: [19]
48.1 µM: [16]
57.7 µM: [56]
38.7 µM: [33]
22 µM: [9] | [49]
22.5 µM: [17]
20.9 µM: [54]
67.4 µM: [34]
46.1 µM: [21]
7.05 µM: [57]
15.9 µM: [43]
27.6 µM: [55]
5.95 µM: [38]
24.3 µM: [30]
33.7 µM: [59]
80.4 µM: [18]
40.7 µM: [20]
29.5 µM: [51]
18.9 µM: [5]
43 µM: [42]
31.1 µM: [40]
30.4 µM: [6]
9.74 µM: [37]
63.3 µM: [2]
31.3 µM: [32]
38.6 µM: [15]
26.9 µM: [47]
39 µM: [41]
46.3 µM: [7]
21.3 µM: [23]
50.8 µM: [48]
35.8 µM: [14]
29.8 µM: [46]
37.5 µM: [35]
33.8 µM: [4]
55.4 µM: [53]
93.2 µM: [8]
19.5 µM: [25]
> 100 µM: [1] | [12] | [36] | [39] | [44] | [58]
50.5 µM: [3]
36 µM: [26]
11.1 µM: [45]
28.2 µM: [22]
3.91 µM: [11]
56.8 µM: [13]
30.2 µM: [24]
34.5 µM: [28]

CCCCCCCCCCCCCC/C(C(=O)O)=C(\C)C(=O)O
not listed: [57]
> 100 µM: all other assays above
